Results as given in patent US12583889B2, “Cell penetrating peptides” (Oxford University Innovation Limited, priority 2017, dated 2026).
Marks after values point to notes of the source that are not given here.

Legend:
[1] = system: human SMN2-gene; assay: Full-length SMN2 transcript qPCR in tissues of adult SMA mice after intravenous peptide-PMO conjugate; assay type: in vivo
From the text: Smn1tm1Hung/wt; […]; […] Tissues were harvested one week post administration. […] Statistical significance determined by Student'[…]≤0.00005. […] ID NO.151), Exons 7-8 Rev: [NT] ID NO.152). […] [NT] ID NO.154). […] PolJ Forward: [NT] ID NO.155); PolJ Reverse: [NT]

[2] = Urinary kidney toxicity markers KIM-1 and NGAL by ELISA after a single IV dose of peptide-PMO conjugate; assay type: in vivo; conditions: 25 mg/kg single IV dose, C57/BL10 female mice
Method: Urinary and serum markers of kidney and liver toxicity were measured following a single dose administration of saline or the relevant peptide-PMO conjugate to 8 week old adult C57/BL10 female mice (N=6 per group). A bolus IV (tail vein) injection was administered and urine collected Day 2 and Day 7 after administration. Animals were then scarified prior to necropsy in which kidney, liver, diaphragm, heart, TA, gastric and serum were collected. Urine clinical indicators: KIM-1, NGAL were measured by ELISA (R&D cat #MKM100) with samples diluted to fit within standard curve. Values were normalised to urinary creatinine levels (Harwell) to account for urine protein concentration.
Group 2—25 mg/kg Pip8b4-PMO SMN
Group 3—25 mg/kg DPEP5.17-PMO SMN

[3] = adult SMA mice, 2x15 mg/kg IV approx. 48 hours apart, tissue 7 days post final administration, normalised to saline treated controls, Central Nervous System
[4] = adult SMA mice, 2x15 mg/kg IV approx. 48 hours apart, tissue 7 days post final administration, normalised to saline treated controls, spinal cord

Substance: Ac-RXRRBRR FS*RBRXR-B [Peptide 17]
- activity in cerebellum and cortex compared with peptide 6 ([1]; FIG. 7, 2x15 mg/kg IV 48 hours apart, adult intermediate SMA mice): equivalent or improved activity
- level of full length transcript (FLSMN) in all tissues ([1]; FIG. 7, 2x15 mg/kg IV 48 hours apart, adult intermediate SMA mice, central spinal cord, peripheral skeletal muscle and liver): > 1 fold
- cell penetration in several compartments of the central nervous system and the skeletal muscle compared with currently available peptides 1-7 ([1]; Table 3 data): increased
- full-length SMN2 transcripts, mean expression level, Brainstem [1, 3]: 1.2
- full-length SMN2 transcripts, mean expression level, Cerebellum [1, 3]: 1.19*
- full-length SMN2 transcripts, mean expression level, Cortex [1, 3]: 1.27*
- full-length SMN2 transcripts, mean expression level, Liver ([1]; adult SMA mice, 2x15 mg/kg IV approx. 48 hours apart, tissue 7 days post final administration, normalised to saline treated controls, Off Target): 3.78
- full-length SMN2 transcripts, mean expression level, Gastroc ([1]; adult SMA mice, 2x15 mg/kg IV approx. 48 hours apart, tissue 7 days post final administration, normalised to saline treated controls, Skeletal Muscle (gastrocnemius)): 3.25****
- full-length SMN2 transcripts, mean expression level, Quad ([1]; adult SMA mice, 2x15 mg/kg IV approx. 48 hours apart, tissue 7 days post final administration, normalised to saline treated controls, Skeletal Muscle (quadriceps)): 2.68***
- full-length SMN2 transcripts, mean expression level, TA ([1]; adult SMA mice, 2x15 mg/kg IV approx. 48 hours apart, tissue 7 days post final administration, normalised to saline treated controls, Skeletal Muscle (tibialis anterior)): 3.00***
- full-length SMN2 transcripts, mean expression level, Cervical [1, 4]: 1.41*
- full-length SMN2 transcripts, mean expression level, Lumbar [1, 4]: 1.1
- full-length SMN2 transcripts, mean expression level, Thoracic [1, 4]: 1.39**
- increase in cell penetration / exon inclusion compared with the currently available peptide conjugated to the same antisense oligonucleotide ([1]; in vivo, Table 3 data, peptide 17 versus peptide 6, peptide 14 versus peptide 2): up to 60.2%
- urinary KIM-1 level normalised to creatinine, compared with peptide 6 ([2]; 2 days after administration): far lower
- urinary KIM-1 level normalised to creatinine, compared with peptide 6 ([2]; 7 days post administration): lower
- urinary NGAL level normalised to creatinine, compared with peptide 6 ([2]; 7 days post administration): lower
